Laboratory results as given in ChEMBL document CHEMBL4480422, “Alkyl derivatives of 1,3,5-triazine as histamine H4 receptor ligands” (Bioorg Med Chem, 2019).
Active and inactive are the calls of the source.

Assays:
Histamine H4 receptor [1] = target: T1, Histamine H4 receptor (Homo sapiens, UniProt Q9H3N8); assay: Displacement of [3H]-histamine from recombinant human H4 receptor expressed in Sf9 cell membranes co-expressing Galphai2/Gbeta1gamma2
Rattus norvegicus [2] = assay: Anti-inflammatory activity in Wistar (Krf:(WI) WU) rat model of carrageenan-induced thermal hyperalgesia assessed as paw withdrawal latency time at 25 mg/kg, ip administered as single dose prior to carrageenan challenge and measured after 2 hrs by plantar test (reference value: 4.03 +/- 0.7 s); format: functional
Mus musculus [3] = assay: (§1) Antinociceptive activity in formalin-induced nociception pain Albino Swiss CD-1 mouse model assessed as reduction in time spent licking or biting formalin injected right hind paw in early phase at 25 mg/kg, ip pretreated followed by formalin injection and measured up to 5 mins; format: functional, organism-based
Rattus norvegicus [4] = assay: Anti-inflammatory activity in Wistar (Krf:(WI) WU) rat model of carrageenan-induced paw edema assessed as hind paw volume at 25 mg/kg, ip administered as single dose prior to carrageenan challenge and measured after 2 hrs by plethysmometer (reference value: 103%); format: functional
Rattus norvegicus [5] = assay: Anti-inflammatory activity in Wistar (Krf:(WI) WU) rat model of carrageenan-induced mechanical hyperalgesia assessed as increase in paw withdrawal threshold at 25 mg/kg, ip administered as single dose prior to carrageenan challenge and measured after 3 hrs; format: functional, organism-based
Rattus norvegicus [6] = assay: Anti-inflammatory activity in Wistar (Krf:(WI) WU) rat model of carrageenan-induced paw edema assessed as hind paw volume at 25 mg/kg, ip administered as single dose prior to carrageenan challenge and measured after 1 hr by plethysmometer (reference value: 49%); format: functional
Mus musculus [7] = assay: as §1, with “in inflammatory” for “in early”, “measured after 15” for “measured up”, “to 30” for “to 5”, “mins relative to control” for “mins”; format: functional; parameters: scale not given: the % may be the effect or the level left
Rattus norvegicus [8] = assay: Anti-inflammatory activity in Wistar (Krf:(WI) WU) rat model of carrageenan-induced thermal hyperalgesia assessed as paw withdrawal latency time at 25 mg/kg, ip administered as single dose prior to carrageenan challenge and measured after 1 hr by plantar test (reference value: 4.79 +/- 0.99 s); format: functional
Rattus norvegicus [9] = assay: Anti-inflammatory activity in Wistar (Krf:(WI) WU) rat model of carrageenan-induced paw edema assessed as hind paw volume at 25 mg/kg, ip administered as single dose prior to carrageenan challenge and measured after 3 hrs by plethysmometer (reference value: 130%); format: functional
Histamine H4 receptor [10] = target: T1, Histamine H4 receptor; assay: Antagonist activity at recombinant human H4 receptor expressed in CHOK1 cells co-expressing Galpha16/aequorin assessed as inhibition of histamine-induced intracellular calcium flux preincubated for 30 mins followed by histamine addition and measured for 30 secs in presence of coelenterazine by luminescence assay; format: functional, cell-based
Histamine H4 receptor [11] = target: T1, Histamine H4 receptor; assay: Agonist activity at recombinant human H4 receptor expressed in CHOK1 cells co-expressing Galpha16/aequorin assessed as increase in intracellular calcium flux incubated for 1 hr measured for 30 secs in presence of coelenterazine by luminescence assay; format: functional, cell-based
Mus musculus [12] = assay: as §1, with “inflammatory” for “early”, “50” for “25”, “after 15” for “up”, “30” for “5”, “mins relative to control” for “mins”; format: functional; parameters: scale not given: the % may be the effect or the level left
[13] = target: T2, Muscarinic acetylcholine receptor M3 (Cavia porcellus, UniProt Q8VH26); assay: Agonist activity at muscarinic M3 receptor in guinea-pig ileum assessed as induction of contractions after 15 mins; format: tissue-based; settings: 0.25 h
Rattus norvegicus [14] = assay: Anti-inflammatory activity in Wistar (Krf:(WI) WU) rat model of carrageenan-induced thermal hyperalgesia assessed as paw withdrawal latency time at 50 mg/kg, ip administered as single dose prior to carrageenan challenge and measured after 1 hr by plantar test (reference value: 4.79 +/- 0.99 s); format: functional
Rattus norvegicus [15] = assay: Anti-inflammatory activity in Wistar (Krf:(WI) WU) rat model of carrageenan-induced paw edema assessed as hind paw volume at 12.5 mg/kg, ip administered as single dose prior to carrageenan challenge and measured after 3 hrs by plethysmometer (reference value: 130%); format: functional
Rattus norvegicus [16] = assay: Anti-inflammatory activity in Wistar (Krf:(WI) WU) rat model of carrageenan-induced paw edema assessed as hind paw volume at 50 mg/kg, ip administered as single dose prior to carrageenan challenge and measured after 1 hr by plethysmometer (reference value: 49%); format: functional
Rattus norvegicus [17] = assay: Anti-inflammatory activity in Wistar (Krf:(WI) WU) rat model of carrageenan-induced thermal hyperalgesia assessed as paw withdrawal latency time at 25 mg/kg, ip administered as single dose prior to carrageenan challenge and measured after 3 hrs by plantar test (reference value: 3.03 +/- 0.4 s); format: functional
Rattus norvegicus [18] = assay: Anti-inflammatory activity in Wistar (Krf:(WI) WU) rat model of carrageenan-induced thermal hyperalgesia assessed as paw withdrawal latency time at 50 mg/kg, ip administered as single dose prior to carrageenan challenge and measured after 3 hrs by plantar test (reference value: 3.03 +/- 0.4 s); format: functional
Rattus norvegicus [19] = assay: Anti-inflammatory activity in Wistar (Krf:(WI) WU) rat model of carrageenan-induced paw edema assessed as reduction in hind paw volume administered as single ip dose prior to carrageenan challenge and measured after 1 to 3 hrs by plethysmometer; format: functional, organism-based
[20] = target: T2, Muscarinic acetylcholine receptor M3; assay: Antagonist activity at muscarinic M3 receptor in guinea-pig ileum assessed as inhibition of carbachol-induced contractions after 15 mins; format: tissue-based; settings: read-out: pA2 (converted)
[21] = Neurotoxicity in Albino Swiss CD-1 mouse assessed as motor impairment at 25 to 75 mg/kg, ip treated 30 mins prior to test by rotarod test; format: toxicity, organism-based; settings: in vivo, 0.5 h
Rattus norvegicus [22] = assay: Anti-inflammatory activity in Wistar (Krf:(WI) WU) rat model of carrageenan-induced paw edema assessed as hind paw volume at 12.5 mg/kg, ip administered as single dose prior to carrageenan challenge and measured after 2 hrs by plethysmometer (reference value: 103%); format: functional
Rattus norvegicus [23] = assay: Anti-inflammatory activity in Wistar (Krf:(WI) WU) rat model of carrageenan-induced paw edema assessed as hind paw volume at 50 mg/kg, ip administered as single dose prior to carrageenan challenge and measured after 2 hrs by plethysmometer (reference value: 103%); format: functional
Histamine H4 receptor [24] = target: T1, Histamine H4 receptor; settings: Sf9
Mus musculus [25] = assay: Effect on spontaneous locomotor activity in Albino Swiss CD-1 mouse assessed as decrease in number of light beam crossings at 75 mg/kg, ip treated prior to test and measured for next 30 mins relative to control; format: ADME, organism-based; parameters: scale not given: the % may be the effect or the level left; settings: in vivo, 0.5 h
Rattus norvegicus [26] = assay: Anti-inflammatory activity in Wistar (Krf:(WI) WU) rat model of carrageenan-induced paw edema assessed as hind paw volume at 12.5 mg/kg, ip administered as single dose prior to carrageenan challenge and measured after 1 hr by plethysmometer (reference value: 49%); format: functional
[27] = target: Histamine H1 receptor (Cavia porcellus) (UniProt P31389); assay: Agonist activity at histamine H1 receptor in guinea-pig ileum assessed as induction of contractions after 15 mins; format: tissue-based
Histamine H4 receptor [28] = target: T1, Histamine H4 receptor; assay: Agonist activity at recombinant human H4 receptor expressed in Sf9 cell membranes co-expressing Galphai2/Gbeta1gamma2 measured after 1 hr in presence of [35S]GTPgammaS by liquid scintillation counting method; format: functional
Mus musculus [29] = assay: Effect on spontaneous locomotor activity in Albino Swiss CD-1 mouse assessed as change in number of light beam crossings at 25 to 50 mg/kg, ip treated prior to test and measured for next 30 mins; format: ADME, organism-based; settings: in vivo, 0.5 h
Mus musculus [30] = assay: Antinociceptive activity in ip dosed formalin-induced nociception pain Albino Swiss CD-1 mouse model assessed as reduction in time spent licking or biting formalin injected right hind paw in inflammatory phase pretreated followed by formalin injection and measured after 15 to 30 mins; format: functional; settings: Swiss CD-1, ip
Rattus norvegicus [31] = assay: Anti-inflammatory activity in Wistar (Krf:(WI) WU) rat model of carrageenan-induced mechanical hyperalgesia assessed as increase in paw withdrawal threshold at 12.5 to 50 mg/kg, ip administered as single dose prior to carrageenan challenge and measured after 3 hrs; format: functional, organism-based
Rattus norvegicus [32] = assay: Anti-inflammatory activity in Wistar (Krf:(WI) WU) rat model of carrageenan-induced thermal hyperalgesia assessed as paw withdrawal latency time at 50 mg/kg, ip administered as single dose prior to carrageenan challenge and measured after 2 hrs by plantar test (reference value: 4.03 +/- 0.7 s); format: functional
Histamine H1 receptor = Histamine H1 receptor (Cavia porcellus, UniProt P31389); assay: Antagonist activity at histamine H1 receptor in guinea-pig ileum assessed as inhibition of histamine-induced contractions after 15 mins; format: tissue-based; settings: read-out: pA2 (converted)
Rattus norvegicus [33] = assay: Anti-inflammatory activity in Wistar (Krf:(WI) WU) rat model of carrageenan-induced paw edema assessed as hind paw volume at 50 mg/kg, ip administered as single dose prior to carrageenan challenge and measured after 3 hrs by plethysmometer (reference value: 130%); format: functional
Mus musculus [34] = assay: Antinociceptive activity in formalin-induced nociception pain Albino Swiss CD-1 mouse model assessed as reduction in time spent licking or biting formalin injected right hind paw in early phase at 75 mg/kg, ip pretreated followed by formalin injection and measured up to 5 mins; format: functional, organism-based

T1 sequence (Q9H3N8 whole entry): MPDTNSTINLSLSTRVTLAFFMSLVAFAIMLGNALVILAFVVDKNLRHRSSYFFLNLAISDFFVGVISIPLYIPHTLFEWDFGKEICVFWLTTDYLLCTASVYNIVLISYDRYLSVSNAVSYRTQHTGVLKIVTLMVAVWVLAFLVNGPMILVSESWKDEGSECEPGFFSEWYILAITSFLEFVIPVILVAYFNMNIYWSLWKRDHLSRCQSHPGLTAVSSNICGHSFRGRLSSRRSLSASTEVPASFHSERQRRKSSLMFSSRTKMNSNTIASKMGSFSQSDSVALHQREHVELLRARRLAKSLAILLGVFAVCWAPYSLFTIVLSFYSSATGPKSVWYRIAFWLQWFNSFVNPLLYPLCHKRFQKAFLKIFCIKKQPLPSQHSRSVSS
T2 sequence (Q8VH26 whole entry): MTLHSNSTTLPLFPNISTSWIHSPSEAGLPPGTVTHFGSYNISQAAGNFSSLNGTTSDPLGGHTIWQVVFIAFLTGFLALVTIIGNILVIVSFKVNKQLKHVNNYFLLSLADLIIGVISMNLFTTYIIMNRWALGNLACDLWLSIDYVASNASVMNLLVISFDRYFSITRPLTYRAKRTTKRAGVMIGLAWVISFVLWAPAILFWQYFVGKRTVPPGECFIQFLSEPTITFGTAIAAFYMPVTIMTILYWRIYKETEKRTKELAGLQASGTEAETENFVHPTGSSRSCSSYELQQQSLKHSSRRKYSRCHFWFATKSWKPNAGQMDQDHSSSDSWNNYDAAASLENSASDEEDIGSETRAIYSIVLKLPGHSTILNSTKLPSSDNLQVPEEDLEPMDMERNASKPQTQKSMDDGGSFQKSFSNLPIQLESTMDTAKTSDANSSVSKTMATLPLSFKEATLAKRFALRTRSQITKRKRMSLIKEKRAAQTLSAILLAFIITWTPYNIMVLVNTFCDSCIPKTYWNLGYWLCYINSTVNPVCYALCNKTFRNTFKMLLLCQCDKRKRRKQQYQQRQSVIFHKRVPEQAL
Sequence of Histamine H1 receptor (Cavia porcellus) (P31389 whole entry): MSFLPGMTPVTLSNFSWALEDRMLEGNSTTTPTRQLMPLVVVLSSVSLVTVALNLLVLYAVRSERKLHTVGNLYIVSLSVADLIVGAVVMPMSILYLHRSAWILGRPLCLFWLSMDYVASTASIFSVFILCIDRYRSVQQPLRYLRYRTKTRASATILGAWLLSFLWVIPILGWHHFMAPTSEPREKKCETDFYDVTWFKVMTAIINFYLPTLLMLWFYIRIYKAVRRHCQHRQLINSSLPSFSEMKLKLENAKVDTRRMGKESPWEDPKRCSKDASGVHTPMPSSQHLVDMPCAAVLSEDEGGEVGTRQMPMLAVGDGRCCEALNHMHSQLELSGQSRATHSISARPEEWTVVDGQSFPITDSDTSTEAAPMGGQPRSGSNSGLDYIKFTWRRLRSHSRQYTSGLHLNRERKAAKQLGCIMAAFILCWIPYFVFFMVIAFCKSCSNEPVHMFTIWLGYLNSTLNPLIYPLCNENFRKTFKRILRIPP
Sequence of Histamine H1 receptor (P31389 whole entry): as above

Work on CC(C)=Cc1nc(N)nc(N2CCN(C)CC2)n1 yielded a Ki (Histamine H4 receptor [1]) of 470 nM.
CN1CCN(c2nc(N)nc(C(C)(C)C)n2)CC1 showed a Ki (Histamine H4 receptor [1]) of 1080 nM.
CC(C)c1nc(N)nc(N2CCN(C)CC2)n1 gave a Ki (Histamine H4 receptor [1]) of 277 nM.
With CN1CCN(C(=O)c2cc3cc(Cl)ccc3[nH]2)CC1 [JNJ-7777120] the Time (Rattus norvegicus [2]) was 8.39 s, the Activity (Mus musculus [3]) was “inactive” and the Activity (Rattus norvegicus [4]) was 47.4%. For the same compound, the Activity (Rattus norvegicus [5]) was “Active”, the Activity (Rattus norvegicus [6]) was 22.11% and the Activity (Mus musculus [7]) was 60.68%. For the same compound, the Time (Rattus norvegicus [8]) was 9.14 s and the Activity (Rattus norvegicus [9]) was 63.66%.
In the case of CC(C)Cc1nc(N)nc(N2CCN(C)CC2)n1, the Ki (Histamine H4 receptor [1]) is reported as 529 nM.
For CN1CCN(c2nc(N)nc(CCC3CCCCC3)n2)CC1, the Ki (Histamine H4 receptor [1]) was 2850 nM.
Work on COCc1nc(N)nc(N2CCN(C)CC2)n1 yielded a Ki (Histamine H4 receptor [1]) greater than 10000 nM.
For CCCc1nc(N)nc(N2CCN(C)CC2)n1, the IC50 (Histamine H4 receptor [10]) was 265 nM, the Ki (Histamine H4 receptor [1]) was 185 nM and the Activity (Histamine H4 receptor [11]) was “inactive”.
CCc1nc(N)nc(N2CCN(C)CC2)n1 showed a Ki (Histamine H4 receptor [1]) of 812 nM.
Work on Cc1nc(N)nc(N2CCN(C)CC2)n1 yielded a Ki (Histamine H4 receptor [1]) of 2660 nM.
With CN1CCN(c2nc(N)nc(CC3CCCCC3)n2)CC1 the Time (Rattus norvegicus [2]) was 9.78 s, the Activity (Mus musculus [12]) was 59.83% and the IC50 (Histamine H4 receptor [10]) was 32 nM. The Activity [13] was “Not Active”, the Time (Rattus norvegicus [14]) was 9.43 s and the Activity (Rattus norvegicus [4]) was 41.3%. The Activity (Rattus norvegicus [15]) was 83.96%, the Activity (Rattus norvegicus [16]) was 8.69% and the Activity (Rattus norvegicus [6]) was 19.56%. For the same compound, the Time (Rattus norvegicus [17]) was 7.06 s, the Time (Rattus norvegicus [18]) was 9.03 s and the Activity (Rattus norvegicus [19]) was “Dose-dependent effect”. For the same compound, the Kb [20] was 2040 nM, the Activity [21] was “Non-Toxic” and the Ki (Histamine H4 receptor [1]) was 160 nM. For the same compound, the Activity (Rattus norvegicus [22]) was 53.77%, the Activity (Rattus norvegicus [23]) was 21.73% and the pKb (Histamine H4 receptor [24]) was 6.67 to 6.7. For the same compound, the Activity (Histamine H4 receptor [11]) was “inactive”, the Activity (Mus musculus [25]) was 23.84% and the Activity (Rattus norvegicus [26]) was 25.47%. The Activity [27] was “inactive”, the Activity (Histamine H4 receptor [28]) was “inactive” and the Time (Rattus norvegicus [8]) was “<=10.49 s”. For the same compound, the Activity (Mus musculus [29]) was “Non-Toxic”, the Activity (Rattus norvegicus [9]) was 84.3% and the ED50 (Mus musculus [30]) was 54.8 mg/kg. The Activity (Rattus norvegicus [31]) was “Active”, the Time (Rattus norvegicus [32]) was 10.05 s and the Kb (Histamine H1 receptor) was 1230 nM. For the same compound, the Activity (Rattus norvegicus [33]) was 57.37% and the Activity (Mus musculus [34]) was “Active”.
With CCC(CC)c1nc(N)nc(N2CCN(C)CC2)n1 the Ki (Histamine H4 receptor [1]) was 1330 nM.
Work on CN1CCN(c2nc(N)nc(CC(C)(C)C)n2)CC1 yielded a Ki (Histamine H4 receptor [1]) of 247 nM.
With CCC(C)c1nc(N)nc(N2CCN(C)CC2)n1 (stereo not given) the Ki (Histamine H4 receptor [1]) was 725 nM.
CN1CCN(c2nc(N)nc(CCCC3CCCCC3)n2)CC1 showed a Ki (Histamine H4 receptor [1]) greater than 10000 nM.
